Measured values reported in US10220029B2, “Pharmaceutical composition comprising glutarimide derivatives and use thereof in the treatment of eosinophilic diseases” (OBSCHESTVO S ORGANICHENNOI OTVETSTVENNOSTIYU …, priority 2013, dated 2019).
Marks after values point to notes of the source that are not given here.

Legend:
[1] = system: model of allergic rhinitis in guinea pigs; experiment: Clinical manifestations of allergic rhinitis in guinea pigs (sneezes, nose scratchings); assay type: in vivo, guinea pig; details: 2 hours after last ovalbumin, n = 8
Protocol: (§1) The model of allergic rhinitis in guinea pigs was realized by a standard method [Vishnu N. Thakare, M. M. Osama, Suresh R. Naik. […] 2013 September; 17(1):18-25].
(§2) Guinea pigs (250-300 g) were immunized with 4-time (on days 0, 7, 14, and 21) intragastric administration of ovalbumin (100 μg/pig) and aluminium hydroxide (5 mg/pig), both of which were diluted and suspended in a physiological saline solution. […], a solution of ovalbumin (60 mg/mL) was administered intranasally to each nostril of the animals at a dose 20 μL. On day 35, the animals received subcutaneously an ovalbumin solution (200 μg/mL, 25 μL); the animal back was previously shaved in the site of administration. Swelling and redness at the injection site served as a support of sensibilisation. On day 42 of the study, an ovalbumin solution (60 mg/mL, 20 μL/nostril) was administered intranasally. A group of pseudoimmunized animals was formed to control the formation of exactly allergic inflammation: on days 0, 7, 14, and 21, the pigs received a solution of aluminium hydroxide (5 mg/pig), and on days 28 and 35, they received a physiological saline solution, and on day 42, a solution of ovalbumin (60 mg/mL, 20 μL/nostril).
(§3) The studied compounds (14 mg/kg) were administered 3 times by the intragastric route: 48, 24, and 1 hour before the last administration of ovalbumin. The reference preparation, dexamethasone, was administered one time by the intragastric route, 3 hours before the last intranasal administration of ovalbumin.
(§4) Clinical manifestations, such as the number of sneezes and nose scratchings, were registered for 2 hours after the last administration of ovalbumin. Nasal lavage was taken 24 hours after the last administration of ovalbumin, and in this lavage, the total lymphocyte count and leukocyte formula were determined. The number of guinea pigs in a group was 8.

[2] = system: model of allergic rhinitis in guinea pigs; experiment: Content of cell elements in the nasal lavage in the model of allergic rhinitis in guinea pigs; assay type: in vivo, guinea pig; details: n = 8
Protocol: as §1, §2, §3, §4

[3] = system: model of atopic dermatitis in mice; experiment: Response index in DNCB-induced atopic (allopathic) dermatitis in mice; assay type: in vivo, male Balb/c mice; details: 10 mg/kg intragastric once daily on days 8-17 (reference preparation); n = 12
Protocol: The model of allopathic dermatitis was realized by a standard method [Mechanism of dinitrochlorobenzene-induced dermatitis in mice: role of specific antibodies in pathogenesis//PLoS One. 2009; 4(11)].
On days 0 and 12 of the study, 100 μL of a 2% solution of 1-chloro-2,4-dinitrobenzene (DNCB, Sigma-Aldrich, US) in 95% ethanol was applied to shaved sites in the backs of male Balb/c mice. On day 17 of the study, to the right “studied” ear of the animals, 20 μL of the alcohol solution of 2% DNCB was applied two times with a one-hour interval. The studied compound and the reference preparation, dexamethasone, were administered by the intragastric route once daily on days 8-17 of the study.
On day 18 of the study, the animals were euthanized in a CO2 camera. The weights of the “studied” and “control” ears were measured. A response index (RI) expressed in percentage of a difference in the weights of the “studied” and “control” ears was calculated.

[4] = system: model of sephadex-induced eosinophilic lung inflammation in rats; experiment: Content of cell elements in BAL in the model of sephadex-induced eosinophilic lung inflammation in rats; assay type: in vivo, male Wistar rats; details: Table 9, four times, BAL 48 hours after sephadex, n = 7
Protocol: The model of sephadex-induced eosinophilic lung inflammation in rats was realized by a standard method [Evaldsson C, Rydén I, Uppugunduri S. Isomaltitol exacerbates neutrophilia but reduces eosinophilia: new insights into the sephadex model of lung inflammation//Int Arch Allergy Immunol. 2011; 154(4):286-94]. Sephadex G-200 (Pharmacia, Sweden) was administered one time by inhalation to male Wistar rats at a dose of 5 mg/kg. The studied compounds were administered to the animals by the intragastric route four times: 24 hours and 1 hour before and 24 hours and 45 hours after administration of sephadex. The reference preparation, budesonide, was administered according to the same scheme, by inhalation at a dose of 0.5 mg/kg. Bronchoalveolar lavage was taken 48 hours after the inhalation of sephadex, and the total lymphocyte count and leukocyte formula in the lavage were determined. The number of rats in a group was 7 to 10.

[5] = system: model of bronchial asthma in guinea pigs; experiment: Content of cell elements in BAL in the model of bronchial asthma in guinea pigs; assay type: in vivo, guinea pig; details: Table 4; 14 mg/kg, 10 times of administration; n = 9
Protocol: Bronchial asthma in guinea pigs was induced by a standard method [Ricciardolo F L, Nijkamp F, De Rose V, Folkerts G. The guinea pig as an animal model for asthma// Current Drug Targets. 2008 June; 9(6):452-65]. The animals were immunized by one parenteral administration of 0.5 mL of a solution comprising 100 μg/mL ovalbumin (Sigma) and 100 mg/mL aluminium hydroxide. Intact animals received a physiological saline solution in an amount of 0.5 mL.
On days 29, 30 and 31, hyperactivity of the respiratory airways was provoked by inhalation administration of ovalbumin in ascending concentrations of 0.1, 0.3, and 0.5 mg/mL on days 1, 2, and 3 of the provocation, respectively. The inhalation lasted 5 minutes or until asphyxia symptoms became apparent (fall to one side). On day 32, the animals received a challenging dose of ovalbumin (1 mg/mL) for 5 minutes, while assessing a bronchospastic reaction.
The studied compounds were administered to the animals once daily every day for 6 or 10 days; the administration was terminated two days before the administration of the challenging dose of antigen.
The bronchoalveolar lavage (BAL) and cardiac cavity blood were derived from the animals 24 hours after administration of the challenging dose. The BAL was collected under anesthesia by lavaging the lungs with 5 mL of a physiological saline solution heated to 37° C. through the trachea, using a syringe dosing device.
The absolute number of cell elements in 1 μL of the lavage (cytosis) was counted in the bronchoalveolar lavage, using the Goryaev camera. Then, the BAL was centrifuged at 200 g for 10 minutes. The residue was used to prepare swabs that were fixed in methanol and stained according to Romanovsky-Giemsa to count endopulmonary cytogram.
The study comprised 3 experiments, wherein the first one was directed to the evaluation of the effect of claimed compounds 1-6 on the cell composition of the BAL, the second and the third experiments were aimed at evaluating the effect of compounds 1 and 2 on the cell composition of the BAL, the cell composition of the blood, and on the bronchospasm severity.

[6] = 5 mg/kg intragastric, one time (reference preparation)
[7] = 5 mg/kg intragastric, one time 3 hours before last ovalbumin (reference preparation)
[8] = 14 mg/kg intragastric, 3 times, nasal lavage 24 hours after last ovalbumin

`C[C@@H]1C[C@H]2[C@@H]3CCC4=CC(=O)C=C[C@]4(C)[C@@]3(F)[C@@H](O)C[C@]2(C)[C@@]1(O)C(=O)CO` [Dexamethasone, dexamethasone, reference compound] was tested, and the “Number of nose scratchings/2 hours” value [1, 6] was 16.7 ± 1.8*&, the “Number of sneezes/2 hours” value [1, 6] was 7.9 ± 0.8 & and the “Eosinophils, content of cell elements in 1 μL of nasal lavage” value [2, 7] was 365 ± 90& in 1 μL of nasal lavage. For the same molecule, the “Leukocytes, content of cell elements in 1 μL of nasal lavage” value [2, 7] was 1186 ± 142& in 1 μL of nasal lavage, the “Lymphocytes, content of cell elements in 1 μL of nasal lavage” value [2, 7] was 5 ± 3 in 1 μL of nasal lavage and the “Macrophages, content of cell elements in 1 μL of nasal lavage” value [2, 7] was 296 ± 71 in 1 μL of nasal lavage. For the same molecule, the “Neutrophils, content of cell elements in 1 μL of nasal lavage” value [2, 7] was 328 ± 47& in 1 μL of nasal lavage and the “Response index (%)” value [3] was 65.6 ± 8*& %.

For `Cn1cnc(CCN2C(=O)CCCC2=O)c1` [Compound 5], the “Number of nose scratchings/2 hours” value ([1]; 14 mg/kg intragastric, 3 times) was 19.1 ± 4.9 &, the “Number of sneezes/2 hours” value ([1]; 14 mg/kg intragastric, 3 times) was 7.1 ± 1.3 & and the “Eosinophils, content of cell elements in 1 μL of nasal lavage” value [2, 8] was 575 ± 143& in 1 μL of nasal lavage. For the same molecule, the “Leukocytes, content of cell elements in 1 μL of nasal lavage” value [2, 8] was 1071 ± 233& in 1 μL of nasal lavage, the “Lymphocytes, content of cell elements in 1 μL of nasal lavage” value [2, 8] was 9 ± 7 in 1 μL of nasal lavage and the “Macrophages, content of cell elements in 1 μL of nasal lavage” value [2, 8] was 198 ± 54 in 1 μL of nasal lavage. The “Neutrophils, content of cell elements in 1 μL of nasal lavage” value [2, 8] was 344 ± 50& in 1 μL of nasal lavage, the “Eosinophils, content of cell elements in 1 μL of BAL” value ([4]; 1.8 mg/kg intragastric) was 147 ± 44& in 1 μL of BAL and the “Leukocytes, content of cell elements in 1 μL of BAL” value ([4]; 1.8 mg/kg intragastric) was 2064 ± 257& in 1 μL of BAL. The “Lymphocytes, content of cell elements in 1 μL of BAL” value ([4]; 1.8 mg/kg intragastric) was 66 ± 26 in 1 μL of BAL, the “Macrophages, content of cell elements in 1 μL of BAL” value ([4]; 1.8 mg/kg intragastric) was 1576 ± 93& in 1 μL of BAL and the “Neutrophils, content of cell elements in 1 μL of BAL” value ([4]; 1.8 mg/kg intragastric) was 385 ± 57 in 1 μL of BAL. For the same molecule, the “Eosinophils, content of cell elements in 1 μL of BAL” value ([4]; 18 mg/kg intragastric) was 34 ± 15& in 1 μL of BAL, the “Leukocytes, content of cell elements in 1 μL of BAL” value ([4]; 18 mg/kg intragastric) was 2189 ± 222& in 1 μL of BAL and the “Lymphocytes, content of cell elements in 1 μL of BAL” value ([4]; 18 mg/kg intragastric) was 121 ± 48 in 1 μL of BAL. The “Macrophages, content of cell elements in 1 μL of BAL” value ([4]; 18 mg/kg intragastric) was 1331 ± 66 & in 1 μL of BAL, the “Neutrophils, content of cell elements in 1 μL of BAL” value ([4]; 18 mg/kg intragastric) was 605 ± 124 in 1 μL of BAL and the “Eosinophils in BAL” value [5] was 1.61 ± 0.86*& 10^9/L. The “Lymphocytes in BAL” value [5] was 1.35 ± 0.34* 10^9/L, the “Monocytes in BAL” value [5] was 0.84 ± 0.23* 10^9/L and the “Neutrophils in BAL” value [5] was 1.05 ± 0.33 10^9/L.
